Laboratory results published in ChEMBL document CHEMBL5726394, “Therapeutic compounds and compositions” (2019).

Target: Isocitrate dehydrogenase [NADP], mitochondrial (Homo sapiens, UniProt P48735, R140Q)
Assay: IDH2 Enzymatic Assay: Compounds were assayed for IDH2 R140Q inhibitory activity through a cofactor depletion assay. […] The reaction was terminated by the addition of a second enzyme, diaphorase, and a corresponding substrate, resazurin. Diaphorase reduces resazurin to the highly fluorescent resorufin with the concomitant oxidation of NADPH to NADP, both halting the IDH2 reaction by depleting the available cofactor pool and facilitating quantitation of the amount of cofactor remaining after a specific time period through quantitative production of an easily detected fluorophore.Specifically, into each of 12 wells of a 384-well plate, 1 μl of compound dilution series was placed, followed by the addition of 40 μl of buffer (50 mM potassium phosphate, pH 7.5; 150 mM NaCl; 10 mM MgCl2, 10% glycerol, 0.05% bovine serum albumin, 2 mM beta-mercaptoethanol) containing 1.25 μg/ml IDH2 R140Q. The compound was then incubated for one hour at room temperature with the enzyme; before starting the IDH2 reaction with the addition of 10 μl of substrate mix containing 50 μM NADPH and 6.3 mM α-KG in the buffer described above. After a further one hour of incubation at room temperature, the reaction was halted and the remaining NADPH measured through conversion of resazurin to resorufin by the addition of 25 μl Stop Mix (36 μg/ml diaphorase enzyme and 60 μM resazurin; in buffer). […]

Sequence of Isocitrate dehydrogenase [NADP], mitochondrial (P48735 40-452 R140Q limits assumed): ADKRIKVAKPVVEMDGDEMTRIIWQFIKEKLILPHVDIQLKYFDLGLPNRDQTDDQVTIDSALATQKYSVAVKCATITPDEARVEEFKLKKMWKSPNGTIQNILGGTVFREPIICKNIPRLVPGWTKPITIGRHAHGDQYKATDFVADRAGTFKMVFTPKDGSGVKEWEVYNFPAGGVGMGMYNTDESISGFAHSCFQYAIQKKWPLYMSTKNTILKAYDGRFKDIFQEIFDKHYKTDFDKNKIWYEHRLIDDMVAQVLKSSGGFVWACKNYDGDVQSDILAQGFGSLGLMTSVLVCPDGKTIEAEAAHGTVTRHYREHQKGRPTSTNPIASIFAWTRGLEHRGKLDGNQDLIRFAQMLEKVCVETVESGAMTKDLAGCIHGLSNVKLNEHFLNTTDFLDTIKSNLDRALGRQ

Compound	IC50 [nM]
O=C(Nc1cccc(C(F)(F)F)c1)Nc1cc(S(=O)(=O)Nc2ccccc2)ccc1-c1cccs1	100 to 1000
CCSc1ccc(S(=O)(=O)NCC(F)(F)F)cc1NC(=O)Nc1cccc(C(F)(F)F)c1	< 100
